Source: US20220378854A1, “COMPOSITION FOR PREVENTING, TREATING, OR IMPROVING GASTROINTESTINAL DISEASES COMPRISING STRAIN OF GENUS CORYNEBACTERIUM AND CULTURE THEREOF” (CJ CheilJedang Corporation, priority 2019, published 2022)

Experiments:
WIRS rats [1] = assay: WIRS rat model, stomach observed by naked eyes (gastrorrhagia); assay type: in vivo; settings: oral, 8 hours before WIRS; same threonine 0.15% by weight/diet; WIRS 6 hours
Method: (§1) 110 SD rats in total were purchased from Charles River (Osaka, Japan) and stored in an animal facility. The experimental animals were handled in the authorized animal facility according to AAALAC International Animal Care Policies. The animals were fasted 24 hours prior to be exposed to WIRS, and water was freely available. 10 rats of each group were placed in a cage for WIRS and immersed in water for 6 hours.
Sample 1 to Sample 5 prepared in Example 8 were orally administered to rats 8 hours before WIRS treatment, so that the same amount of threonine was administered (0.15% by weight/diet), and after applying WIRS for 6 hours, the animals were sacrificed and the stomach was extracted and incised and contents were removed, and a picture of the inner surface of the stomach was taken and this was shown in FIG. 11.

WIRS rats [2] = assay: apoptosis proteins in WIRS rats (western blot); assay type: in vivo, rat; settings: oral 8 hours before WIRS; WIRS 6 hours
Method: (§2) They were divided into a untreated group in which nothing was treated after oral administration of saline solution ([…], animal experimental group 1), WIRS Group in which WIRS was applied for 6 hours ([…], animal experimental group 2), and animal experimental groups in which feed containing Sample 1 (prepared in Example 8) of 0.15% by weight (animal experimental group 3) and feed containing Sample 3 (prepared in Example 8) of 0.21% by weight (animal experimental group 4) were orally treated by 30 mg/kg body, respectively, 8 hours before WIRS treatment. The content of L-Thr (L-threonine) in the feed of the animal experimental groups 3 and 4 was set to 0.15% by weight/diet equally.
In addition, in each of the animal experimental groups 1-4, the protein level of p-IκBα, p-ERK, and p-JNK was measured and shown in FIG. 8c and FIG. 8d. Specifically, to perform western blot for measuring the protein level, the collected gastric mucosa was homogenized in ice-cold 20 mM Tris-HCl buffer (pH 7.5) containing 2 mM EDTA (ethylenediaminetetraacetic acid), 0.5 mM EGTA (ethylene glycol tetraacetic acid), 300 mM sucrose, and 2 mM PMSF (phenylmethylsulfonyl fluoride) with a tissue homogenator. After electrophoresis of protein of 30 μg in 8% SDS-PAGE (sodium dodecyl sulfate-polyacrylamide gel electrophoresis) gel, it was transferred to PVDF (polyvinylidene fluoride) membrane using a semidry transfer system (Hoefer, Holliston, Mass., USA). Non-specific binding was blocked by incubation with 5% non-fat dry milk. The membrane was thermostatically incubated with a 500-fold diluted solution of a primary antibody at 4° C. overnight, and then incubated with an HRP (horseradish peroxidase) binding-secondary antibody diluted by 1:1000. The immune complex was detected using ECL detection kit (Amersham Biosciences Korea, Seoul, Korea) and X-ray film was automatically irradiated. Antibodies used for western blot were as follows. β-actin, iNOS (nitric oxide synthase), COX-2 (cyclooxygenase), P-JNK (phosphor-JNK), P-ERK (phosphor-ERK), Bcl-2 (B-cell lymphoma 2), Bax (B-cell lymphoma-2-associated X-protein), and cyclin D1 antibodies were purchased from Santa Cruz Biotechnology (Santa Cruz, Calif.). p-IκBα (phosphorylated inhibitor of kappa B alpha), p-STAT3 (phosphorylated signal transducer and activator of transcription 3), PARP (poly(ADP-ribose) polymerase), CDK4 (cyclin-dependent kinase 4), and CDK2 (cyclin dependent kinase 2) were purchased from Cell Signaling Technology (Beverly, Mass.). HO-1 (A heme oxygenase-1) antibody was purchased from Enzo life Sciences (Farmingdale, N.Y.). […]

WIRS rats [3] = assay: apoptosis on the gastric mucosa of WIRS rats (TUNEL, apoptotic index); assay type: in vivo, rat; settings: oral 8 hours before WIRS; WIRS 6 hours
Method: as §2
Specifically, apoptosis was visualized using TdT FragEL DNA fragmentation detection kit (Oncogene Research Products, Cambridge, Mass.) and TUNEL (Terminal deoxynucleotidyl transferase-mediated nick end labeling) method. To measure AI (apoptotic index) by finding a region in which apoptosis occurs in a large quantity (apoptotic hot spot) in each experimental group, TUNEL-immunostained section (terminal deoxynucleotidyl transferase mediated dUTP nick-end labeling (TUNEL)-immunostained section) was enlarged 100 folds and scanned. Then, the number of TUNEL-positive cells was counted in 400 fields to record AI. […]

WIRS rats [4] = assay: mRNA expression of inflammation mediators and PDGF in WIRS rats; assay type: in vivo, rat; settings: oral 8 hours before WIRS; L-Thr 0.15% by weight/diet; WIRS 6 hours
Method: as §2
Since SRMD was physiologically related to ischemic-reperfusion damage, in the animal experimental groups 1 to 4, mRNA expression of angiogenesis growth factors including PDGF (platelet-derived growth factor) and mRNA expression of inflammation mediators, iNOS, TNF-α, IFN-γ, and PDGF were measured, and the result was shown in FIG. 8a and FIG. 8b.
Specifically, the total RNA was extracted using RNeasy Mini kit (Qiagen Korea, Seoul, Korea). Amplification was analyzed using 10× reaction buffer (Promega Korea, Seoul, Korea), 1.5 mM/L MgCl2, […] deoxynucleotide triphosphate (dNTP), each primer […], and Taq DNA polymerase (Promega) 2.5 unit, using Perkin-Elmer GeneAmp PCR System 2400. Each cycle was composed of denaturation at 95° C. for 1 minute, annealing at 55° C. for […], and amplification at 72° C. for 45 seconds.

WIRS rats [5] = assay: CDK4 and Cyclin D1 protein in WIRS rats; assay type: in vivo, rat; settings: oral 8 hours before WIRS; WIRS 6 hours
Method: as §2
(§3) In addition, in each of the animal experimental groups 1-4, the protein level of p-IκBα, p-ERK, and p-JNK was measured and shown in FIG. 8c and FIG. 8d. Specifically, to perform western blot for measuring the protein level, the collected gastric mucosa was homogenized in ice-cold 20 mM Tris-HCl buffer (pH 7.5) containing 2 mM EDTA (ethylenediaminetetraacetic acid), 0.5 mM EGTA (ethylene glycol tetraacetic acid), 300 mM sucrose, and 2 mM PMSF (phenylmethylsulfonyl fluoride) with a tissue homogenator. […] The immune complex was detected using ECL detection kit (Amersham Biosciences Korea, Seoul, Korea) and X-ray film was automatically irradiated. […]

WIRS rats [6] = assay: p-IκBα, p-ERK, p-JNK protein level in gastric mucosa of WIRS rats (western blot); assay type: in vivo, rat; settings: oral 8 hours before WIRS, WIRS 6 hours
Method: as §2, §3

WIRS rats [7] = assay: SRMD improving efficacy in WIRS rats (gross lesion index, pathologic scores); assay type: in vivo, rat; settings: oral 8 hours before WIRS; L-Thr 0.15% by weight/diet; WIRS 6 hours
Method: as §1, §2
All experimental animals (rat) were sacrificed with a high dose of anesthetic (thiopental sodium, 50 mg/kg) after 6 hours of WIRS. The animal experimental groups 1-4 disclosed in the following Examples 10 to 12 mean the animal experimental groups 1-4 of the Table 5, and in FIG. 7a to FIG. 10, Groups 1-4 mean the animal experimental groups 1-4 of Table 5.
The stomach of the rat sacrificed in Example 9 was incised and opened along the larger curvature, and then washed with cold PBS solution. After determining the number and size of erosions or ulcers by enlarged photographs, the half was anatomized for anatomical observation. The incised stomach was spread over plastic sheet and fixed in 10% buffer formalin for 4 hours and used for production of a paraffin tissue slide, and the other half was stored in a liquid nitrogen tank for molecular biological observation. In addition, the mucosal homogenate was stored by mixing the same animal experimental groups.
The stomach sample was observed using […] naked eyes (FIG. 7a), and in the control group and each experimental group (animal experimental groups 1-4), gross lesion index, inflammation; pathologic score, ulcer/erosion; pathologic score, regeneration; pathologic score were calculated and shown in FIG. 7b.

WIRS rats [8] = assay: mucin content in stomach tissue of WIRS rats by PAS staining; assay type: in vivo, rat; settings: oral 8 hours before WIRS, WIRS 6 hours
Method: as §2
In the stomach tissue of the animal experimental groups 1 to 4, the mucin content was confirmed by PAS staining, and the result was shown in FIG. 10.

Structure (SMILES): C[C@@H](O)[C@H](N)C(=O)O [Sample 1, threonine]
- degree of gastrorrhagia reduced (therapeutic effect of gastric ulcer), rank order (WIRS rats [1]): Sample 1<Sample 5<Sample 4<Sample 3 or Sample 2
- Bax expression (WIRS rats [2]): significantly reduced
- PARP division (WIRS rats [2]): significantly reduced
- cleaved caspase-3 expression (WIRS rats [2]): significantly reduced
- cleaved caspase-8 expression (WIRS rats [2]): significantly reduced
- apoptosis level on the gastric mucosa (TUNEL) (WIRS rats [3]): significantly reduced
- IFN-γ mRNA expression (WIRS rats [4]): significantly reduced
- PDGF mRNA expression (WIRS rats [4]): significantly reduced
- TNF-α mRNA expression (WIRS rats [4]): significantly reduced
- iNOS mRNA expression (WIRS rats [4]): significantly reduced
- expression of CDK4 (WIRS rats [5]): significantly reduced
- expression of Cyclin D1 (WIRS rats [5]): significantly reduced
- p-ERK activation (signaling) (WIRS rats [6]): partially inactivated
- p-JNK activation (signaling) (WIRS rats [6]): partially inactivated
- SRMD (erosions, hemorrhage, ulcers), stomach observation (WIRS rats [7]): significantly improved
- gross lesion index (WIRS rats [7]): significantly (p<0.05) improved
- inflammation; pathologic score (WIRS rats [7]): significantly (p<0.05) improved
- regeneration; pathologic score (WIRS rats [7]): significantly (p<0.05) improved
- ulcer/erosion; pathologic score (WIRS rats [7]): significantly (p<0.05) improved
- gastric mucin / mucus expression (PAS staining) (WIRS rats [8]): significantly preserved
